Data on 4 compounds can be found in patent US20140369943A1, “COMPOSITIONS COMPRISING ISOSORBIDE MONOESTERS AND HALOGENATED ANTIMICROBIAL ACTIVE COMPOUNDS” (CLARIANT INTERNATIONAL LTD., priority 2011, published 2014).

The subject of one experiment is Penicillium minioluteum. Put plainly: MIC determination in agar (antimicrobial efficacy). It is filed as cell-based. Particulars: MIC of bronopol alone, Sabouraud 4% dextrose agar pH 5.6, corrected for dilution. The procedure: (§1) Below, the antimicrobial efficacy of a composition according to the invention consisting of 20% by weight of isorbide caprylate 1 and 80% by weight of a 10% by weight strength solution of 2-bromo-2-nitropropane-1,3-diol (bronopol) in water against bacteria, fungi and yeasts is examined (hereinbelow, the composition is referred to as “composition A”). For the tests with bacteria, composition A was diluted with butyl polyglycol and then, at 50° C., added to liquid CASO agar (casein-peptone agar) buffered to pH 7 (+1-0.2) in various concentrations (hereinbelow referred to as compositions B1, B2, etc.). For the tests with fungi and yeasts, composition A was diluted with butyl polyglycol and then added to liquid Sabouraud 4% dextrose agar buffered to pH 5.6 (+1-0.2) in various concentrations (hereinbelow referred to as compositions PH1, PH2, etc.). The compositions B1, B2, etc. and PH1, PH2 etc. were each poured into Petri dishes and each inoculated with identical amounts of bacteria, fungi and yeasts. The minimum inhibitory concentration (MIC) is the concentration at which inhibition of the growth of the bacteria, fungi and yeasts in the compositions B1, B2, etc. and PH1, PH2, etc. occurs.
(§2) The minimum inhibitory concentrations for the pure substances isosorbide caprylate 1 and bronopol were determined analogously.
(§3) The values determined for the minimum inhibitory concentrations “MIC mixture”, stated in Table 1 below, are based on the concentrations of composition A.
(§4) The values determined for the minimum inhibitory concentrations “QA” and “QB”, stated in Table 1 below, have already been corrected for the dilution effect of the water and the butyl polyglycol.
(§5) Kull et al., Applied Microbiology 1961, 9, 538 using the formula below: […]
(§6) where • Qa is the minimum inhibitory concentration of isosorbide caprylate 1 in the mixture employed, • QA is the minimum inhibitory concentration of isosorbide caprylate 1, • Qb is the minimum inhibitory concentration of bronopol in the mixture employed and • QB is the minimum inhibitory concentration of bronopol.
(§7) The values for Qa and Qb are determined from the values for the mixtures (“MIC mixture”) by multiplying the minimum inhibitory concentrations determined for Qa with the factor 0.2 and for Qb with the factor 0.08, because of the proportions of the ingredients—20% by weight of isosorbide caprylate 1 and 8% by weight of bronopol—in composition A according to the invention examined.
(§8) If an SE value >1 is obtained, an antagonistic effect is present.

A further experiment relates to Klebsiella pneumoniae. Kind of experiment: MIC determination in agar (antimicrobial efficacy). It is filed as cell-based. As to conditions: MIC of bronopol alone, CASO agar pH 7, corrected for dilution. As for the experimental part:
as §1, §2, §3, §4, §5, §6, §7, §8

A further experiment deals with Fusarium solani. Put plainly: MIC determination in agar (antimicrobial efficacy). As to conditions: MIC of bronopol alone, Sabouraud 4% dextrose agar pH 5.6, corrected for dilution. It is filed as cell-based. The procedure: as §1, §2, §3, §4, §5, §6, §7, §8
The subject of the next experiment is Enterobacter aerogenes. Kind of experiment: MIC determination in agar (antimicrobial efficacy). Particulars: MIC of bronopol alone, CASO agar pH 7, corrected for dilution. It is filed as cell-based. As for the experimental part: as §1, §2, §3, §4, §5, §6, §7, §8
A further experiment has as its system Proteus vulgaris. Kind of experiment: MIC determination in agar (antimicrobial efficacy). The format is cell-based. As to conditions: MIC of bronopol alone, CASO agar pH 7, corrected for dilution. The procedure:
as §1, §2, §3, §4, §5, §6, §7, §8

The test system of a further experiment is Escherichia coli. Kind of experiment: MIC determination in agar (antimicrobial efficacy). The format is cell-based. Particulars: MIC of bronopol alone, CASO agar pH 7, corrected for dilution. The procedure:
as §1, §2, §3, §4, §5, §6, §7, §8

The test system of another experiment is Citrobacter freundii. Kind of experiment: MIC determination in agar (antimicrobial efficacy). It is filed as cell-based. Particulars: MIC of bronopol alone, CASO agar pH 7, corrected for dilution. As for the experimental part:
as §1, §2, §3, §4, §5, §6, §7, §8

The test system of the next experiment is Aspergillus brasiliensis. Kind of experiment: MIC determination in agar (antimicrobial efficacy). It is filed as cell-based. Particulars: MIC of bronopol alone, Sabouraud 4% dextrose agar pH 5.6, corrected for dilution. The procedure: as §1, §2, §3, §4, §5, §6, §7, §8
In a further experiment the test system is Candida albicans. Put plainly: MIC determination in agar (antimicrobial efficacy). The format is cell-based. Particulars: MIC of bronopol alone, Sabouraud 4% dextrose agar pH 5.6, corrected for dilution. The procedure: as §1, §2, §3, §4, §5, §6, §7, §8
The test system of a further experiment is Penicillium funicolosium. Kind of experiment: MIC determination in agar (antimicrobial efficacy). Particulars: MIC of bronopol alone, Sabouraud 4% dextrose agar pH 5.6, corrected for dilution. The format is cell-based. As for the experimental part:
as §1, §2, §3, §4, §5, §6, §7, §8

The subject of the next experiment is Pseudomonas aeruginosa. Kind of experiment: MIC determination in agar (antimicrobial efficacy). The format is cell-based. As to conditions: MIC of bronopol alone, CASO agar pH 7, corrected for dilution. The procedure: as §1, §2, §3, §4, §5, §6, §7, §8
The test system of a further experiment is Aspergillus terreus. Kind of experiment: MIC determination in agar (antimicrobial efficacy). Particulars: MIC of bronopol alone, Sabouraud 4% dextrose agar pH 5.6, corrected for dilution. It is filed as cell-based. The procedure: as §1, §2, §3, §4, §5, §6, §7, §8
The next experiment relates to Pseudomonas oleovorans. Put plainly: MIC determination in agar (antimicrobial efficacy). The format is cell-based. As to conditions: MIC of bronopol alone, CASO agar pH 7, corrected for dilution. As for the experimental part: (§9) Below, the antimicrobial efficacy of a composition according to the invention consisting of 20% by weight of isorbide caprylate 1 and 80% by weight of a 10% by weight strength solution of 2-bromo-2-nitropropane-1,3-diol (bronopol) in water against bacteria, fungi and yeasts is examined (hereinbelow, the composition is referred to as “composition A”). For the tests with bacteria, composition A was diluted with butyl polyglycol and then, at 50° C., added to liquid CASO agar (casein-peptone agar) buffered to pH 7 (+1-0.2) in various concentrations (hereinbelow referred to as compositions B1, B2, etc.). For the tests with fungi and yeasts, composition A was diluted with butyl polyglycol and then added to liquid Sabouraud 4% dextrose agar buffered to pH 5.6 (+1-0.2) in various concentrations (hereinbelow referred to as compositions PH1, PH2, etc.). […]
as §2, §3
(§10) The values determined for the minimum inhibitory concentrations “QA” and “QB”, stated in Table 1 below, have already been corrected for the dilution effect of the water and the butyl polyglycol. […]

In another experiment the test system is Staphylococcus aureus. Kind of experiment: MIC determination in agar (antimicrobial efficacy). It is filed as cell-based. As to conditions: MIC of bronopol alone, CASO agar pH 7, corrected for dilution. As for the experimental part:
as §9, §2, §3, §10

Experiment [1] deals with bacteria, fungi and yeasts. Particulars: general statement, no data given, cited from earlier work.
Experiment [2] has as its system bacteria, fungi and yeasts. Put plainly: antimicrobial activity, overall statements in words. The format is cell-based. As for the experimental part:
as §1

“Also recorded” adds a separate entry of the source. Like-named read-outs stand apart in the source and are kept apart here.

For the compound `O=[N+]([O-])C(Br)(CO)CO` [bronopol, 2-bromo-2-nitropropane-1,3-diol], the “QB, meas.” value worked out at 500 ppm in the experiment on Penicillium minioluteum; 50 ppm in the experiment with Klebsiella pneumoniae; 500 ppm with Fusarium solani; 75 ppm in the experiment with Enterobacter aerogenes; 50 ppm in the experiment on Proteus vulgaris; 50 ppm with Escherichia coli. For the same compound, the “QB, meas.” value is recorded as 50 ppm in the experiment on Citrobacter freundii; 500 ppm in the experiment with Aspergillus brasiliensis; 500 ppm in the experiment on Candida albicans; 150 ppm in the experiment on Penicillium funicolosium; 75 ppm with Pseudomonas aeruginosa; 1000 ppm in the experiment on Aspergillus terreus. Also, the “QB, meas.” value in the experiment on Pseudomonas oleovorans turned out to be 50 ppm; in the experiment on Staphylococcus aureus, 75 ppm.

In the case of `CCCCCCCC(=O)O` [caprylic acid], the antimicrobial activity result in [1] (at a pH of 6 or above) is reported as “no antimicrobial activity”. Further, the antimicrobial efficacy entry in experiment [1] is given as “antimicrobially effective”. Further, the “antimicrobial efficacy as constituent of isosorbide caprylate 1” value in [2] (present in an amount of only 0.4% by weight) is recorded as “so low that it is negligible; also recorded: lack of antimicrobial activity”.

On to `O[C@@H]1CO[C@H]2[C@@H]1OC[C@@H]2O` [isosorbide], for which the antimicrobial activity result in experiment [2] (overall conclusion in words from Tables 1 and 2) was “neither isosorbide nor isosorbide dicaprylate are antimicrobially active; also recorded: lack of antimicrobial activity”.

isosorbide monocaprylate: the antimicrobial activity result in experiment [2] (concluded from activity of isosorbide caprylate 1 and inactivity of its other constituents) was “significant antimicrobial activity”.
